Read-outs that look alike come from different tables or passages of the source.
Key:
[1] = Stability in human blood serum (radio-HPLC); assay type: in vitro ADME; conditions: 37 °C; for remaining at 1 h: 60 min; for Serum stability (% of intact ligand): n=2
Description: Ligand stability in human blood serum (n = 2) and PBS (pH = 6.5) (n = 1) was determined for different time points (2 min, 30 min, 60 min, 120 min). Therefore, approx. 5 MBq of radioligand was added to 1 mL of fresh human serum at 37 °C or PBS at rt. At each given time point 100 µL of the mixture were transferred to a 1.5 mL Eppendorf tube containing 100 µL of acetonitrile. The vial was vortexed and centrifuged for 2 min at 14,000 1/min before 100 µL of the supernatant were diluted with 200 µL of water and injected into analytical radio-HPLC. The PBS solution was directly injected into the radio-HPLC. Ligand stability was determined by integrating the areas of the signals in the radio chromatogram in relation to the signal of the intact ligand.

[2] = Protein binding in human serum (MicroSpin G-50 columns); assay type: in vitro ADME; conditions: fresh human serum, 37 °C, n=3
Description: Protein binding was determined for different time points (2 min, 30 min, 60 min, 120 min) in triplicates using Sephadex MicroSpin G-50 columns (GE-Healthcare, Chicago, Illinois, USA). The columns were spun initially at 20,000 rcf for 1 min to remove the storage buffer. Then approx. 5 MBq of radioligand was added to 1 mL of fresh human serum and incubated at 37 °C. At each given timepoint 25 µL of the mixture was loaded on to the column, which was then spun at 20,000 rcf for 1 min. The activity content on the column (free radioligand) and in the filtrate (protein bound fraction) was quantified in a γ-counter.

[3] = Partition coefficient logD (n-octanol/PBS); assay type: physicochemical; conditions: n=6
Description: For determination of logarithmic partition coefficients (logD) n-Octanol (500 µL) and PBS (500 µL) were pipetted into eight 1.5 mL Protein Low-Bind Eppendorf tubes followed by addition of 300 kBq of labelled compound. The vials were vortexed for 5 min at 1,500 1/min and then centrifuged for 5 min at 20,000 rcf (Eppendorf Centrifuge 5424). Aliquots of 100 µL were taken out of each phase and the amount of activity was quantified in a γ-counter (Perkin Elmer 2480 Wizard2 3"; Waltham, Massachusetts, USA).

[4] = Biodistribution studies in BALB/c mice; assay type: in vivo; conditions: for tissue uptake at 10 min / tissue uptake at 0.5 h / tissue uptake at 1 h: female, mouse, iv, total radioactivity, healthy BALB/c mice, 0.1 nmol i.v.; for tissue uptake at 10 min: 10 min p.i.; for tissue uptake at 0.5 h: 30 min p.i.; for tissue uptake at 1 h: 60 min p.i.
Description: For biodistribution studies 6-week-old female BALB/c mice (n=3) were injected with 0.1 nmol (100 µL, approx. 1 MBq) of labelled compound via the lateral tail vein and sacrificed after 10, 30, or 60 min by cervical dislocation. The mice were dissected, blood and organs (spleen, pancreas, stomach, intestine, liver, kidney, heart, lung, muscle and bone) were weighed and their activity measured in a γ-counter. For blocking experiments, mice were co-injected with 27.7 µmοl N-acetylgalactose.

[5] = n=2, read-out: Serum stability (% of intact ligand)
[6] = Blood, read-out: Biodistribution data, Blood
[7] = Femur, read-out: Biodistribution data, Femur
[8] = Heart, read-out: Biodistribution data, Heart
[9] = Intestine, read-out: Biodistribution data, Intestine
[10] = Kidneys, read-out: Biodistribution data, Kidneys
[11] = Liver, read-out: Biodistribution data, Liver
[12] = Lung, read-out: Biodistribution data, Lung
[13] = Muscle, read-out: Biodistribution data, Muscle
[14] = Pancreas, read-out: Biodistribution data, Pancreas
[15] = Spleen, read-out: Biodistribution data, Spleen
[16] = Stomach, read-out: Biodistribution data, Stomach

## NC(=O)CNC(=O)CNC(=O)[C@H](CCCCNC(=O)CCCCc1cn(C2O[C@H](CO)[C@H](O)[C@H](O)[C@H]2O)nn1)NC(=O)CNC(=O)CNC(=O)[C@H](CCCCNC(=O)CCCCc1cn(C2O[C@H](CO)[C@H](O)[C@H](O)[C@H]2O)nn1)NC(=O)CNC(=O)CNC(=O)[C@H](CCCCNC(=O)CCCCc1cn(C2O[C@H](CO)[C@H](O)[C@H](O)[C@H]2O)nn1)NC(=O)CCCNC(=O)CC[C@H](C(=O)O)N1CCN(CC(=O)O)CCN(CC(=O)O)CC1 (stereo partly shown) [[68Ga]Ga-TriLysan, metal not drawn]
[1]; [5]
  remaining at 2 min: 99.9%
  remaining at 1 h: 99.9%
[1]; 30 min, n=2, read-out: Serum stability (% of intact ligand)
  remaining at 0.5 h: 99.9%
[1]; 120 min
  Serum stability (% of intact ligand): 99.9 ± 0%
[2]; 2 min
  fraction unbound at 2 min, 5 MBq/mL: 0.82
[2]; 30 min
  fraction unbound at 30 min, 5 MBq/mL: 0.798
[2]; 60 min
  fraction unbound at 60 min, 5 MBq/mL: 0.831
[2]; 120 min
  fraction unbound: 0.857 ± 0.126
[3]
  logD: -3.52 ± 0.03
[4]; BALB/c mice, comparison with ^99mTc-GSA
  activity accumulation in the liver (in words): low accumulation
[4]; [6]
  tissue uptake at 10 min: 3.64 ± 0.08 %ID/g
  tissue uptake at 0.5 h: 1.6 ± 0.17 %ID/g
  tissue uptake at 1 h: 0.27 ± 0.01 %ID/g
[4]; [7]
  tissue uptake at 10 min: 0.89 ± 0.32 %ID/g
  tissue uptake at 0.5 h: 0.39 ± 0.02 %ID/g
  tissue uptake at 1 h: 0.11 ± 0.01 %ID/g
[4]; [8]
  tissue uptake at 10 min: 1.41 ± 0.01 %ID/g
  tissue uptake at 0.5 h: 0.63 ± 0.04 %ID/g
  tissue uptake at 1 h: 0.15 ± 0.01 %ID/g
[4]; [9]
  tissue uptake at 10 min: 1.24 ± 0.26 %ID/g
  tissue uptake at 0.5 h: 1.13 ± 0.02 %ID/g
  tissue uptake at 1 h: 1.04 ± 0.26 %ID/g
[4]; [10]
  tissue uptake at 10 min: 7.56 ± 1.35 %ID/g
  tissue uptake at 0.5 h: 4.99 ± 0.02 %ID/g
  tissue uptake at 1 h: 1.99 ± 0.34 %ID/g
[4]; [11]
  tissue uptake at 10 min: 9.45 ± 1.58 %ID/g
  tissue uptake at 0.5 h: 9.44 ± 1.99 %ID/g
  tissue uptake at 1 h: 9.19 ± 0.27 %ID/g
[4]; [12]
  tissue uptake at 10 min: 2.56 ± 0.17 %ID/g
  tissue uptake at 0.5 h: 1.15 ± 0.11 %ID/g
  tissue uptake at 1 h: 0.47 ± 0.06 %ID/g
[4]; [13]
  tissue uptake at 10 min: 0.9 ± 0.05 %ID/g
  tissue uptake at 0.5 h: 0.4 ± 0.04 %ID/g
  tissue uptake at 1 h: 0.12 %ID/g
[4]; [14]
  tissue uptake at 10 min: 0.97 ± 0.04 %ID/g
  tissue uptake at 0.5 h: 0.44 %ID/g
  tissue uptake at 1 h: 0.17 ± 0.01 %ID/g
[4]; [15]
  tissue uptake at 10 min: 1 ± 0.01 %ID/g
  tissue uptake at 0.5 h: 0.42 ± 0.02 %ID/g
  tissue uptake at 1 h: 0.16 %ID/g
[4]; [16]
  tissue uptake at 10 min: 1.55 ± 0.24 %ID/g
  tissue uptake at 0.5 h: 0.88 ± 0.09 %ID/g
  tissue uptake at 1 h: 0.31 ± 0.05 %ID/g

## NC(=O)CNC(=O)CNC(=O)[C@H](CCCCNC(=O)CCCCc1cn(C2O[C@H](CO)[C@H](O)[C@H](O)[C@H]2O)nn1)NC(=O)CNC(=O)CNC(=O)[C@H](CCCCNC(=O)CCCCc1cn(C2O[C@H](CO)[C@H](O)[C@H](O)[C@H]2O)nn1)NC(=O)CNC(=O)CNC(=O)[C@H](CCCCNC(=O)CCCCc1cn(C2O[C@H](CO)[C@H](O)[C@H](O)[C@H]2O)nn1)NC(=O)CNC(=O)CNC(=O)[C@H](CCCCNC(=O)CCCCc1cn(C2O[C@H](CO)[C@H](O)[C@H](O)[C@H]2O)nn1)NC(=O)CNC(=O)CNC(=O)[C@H](CCCCNC(=O)CCCCc1cn(C2O[C@H](CO)[C@H](O)[C@H](O)[C@H]2O)nn1)NC(=O)CNC(=O)CNC(=O)[C@H](CCCCNC(=O)CCCCc1cn(C2O[C@H](CO)[C@H](O)[C@H](O)[C@H]2O)nn1)NC(=O)CCCNC(=O)CC[C@H](C(=O)O)N1CCN(CC(=O)O)CCN(CC(=O)O)CC1 (stereo partly shown) [[68Ga]Ga-HexaLysan, metal not drawn]
[1]; [5]
  remaining at 2 min: 99.4 ± 0.2%
  remaining at 1 h: 99.9 ± 0.1%
[1]; 30 min
  Serum stability (% of intact ligand): 99.7 ± 0.1%
[1]; 120 min, n=2, read-out: Serum stability (% of intact ligand)
  remaining at 2 h: 99.9 ± 0.1%
[2]; 2 min
  fraction unbound: 0.824
[2]; 30 min
  fraction unbound: 0.782
[2]; 60 min
  fraction unbound: 0.82
[2]; 120 min
  fraction unbound at 120 min, 5 MBq/mL: 0.748
[3]
  logD: -4.34 ± 0.13
[4]; [6]
  tissue uptake at 10 min: 2.1 ± 0.04 %ID/g
  tissue uptake at 0.5 h: 0.63 ± 0.07 %ID/g
  tissue uptake at 1 h: 1.05 ± 0.41 %ID/g
[4]; [7]
  tissue uptake at 10 min: 0.48 ± 0.06 %ID/g
  tissue uptake at 0.5 h: 0.33 ± 0.03 %ID/g
  tissue uptake at 1 h: 0.002 ± 0.001 %ID/g
[4]; [8]
  tissue uptake at 10 min: 0.94 ± 0.05 %ID/g
  tissue uptake at 0.5 h: 0.37 ± 0.09 %ID/g
  tissue uptake at 1 h: 0.25 ± 0.02 %ID/g
[4]; [9]
  tissue uptake at 10 min: 1.19 ± 0.25 %ID/g
  tissue uptake at 0.5 h: 3.97 ± 0.28 %ID/g
  tissue uptake at 1 h: 5.94 ± 1.67 %ID/g
[4]; [10]
  tissue uptake at 10 min: 4.83 ± 0.3 %ID/g
  tissue uptake at 0.5 h: 1.94 ± 0.22 %ID/g
  tissue uptake at 1 h: 1.34 ± 0.34 %ID/g
[4]; [11]
  tissue uptake at 10 min: 54.8 ± 3.02 %ID/g
  tissue uptake at 0.5 h: 55.5 ± 7.37 %ID/g
  tissue uptake at 1 h: 45.9 ± 11.8 %ID/g
[4]; [12]
  tissue uptake at 10 min: 1.61 ± 0.16 %ID/g
  tissue uptake at 0.5 h: 0.77 ± 0.11 %ID/g
  tissue uptake at 1 h: 0.62 ± 0.19 %ID/g
[4]; [13]
  tissue uptake at 10 min: 0.93 ± 0.12 %ID/g
  tissue uptake at 0.5 h: 0.57 ± 0.03 %ID/g
  tissue uptake at 1 h: 0.41 ± 0.04 %ID/g
[4]; [14]
  tissue uptake at 10 min: 0.91 ± 0.05 %ID/g
  tissue uptake at 0.5 h: 0.69 ± 0.12 %ID/g
  tissue uptake at 1 h: 0.48 ± 0.13 %ID/g
[4]; [15]
  tissue uptake at 10 min: 0.5 ± 0.07 %ID/g
  tissue uptake at 0.5 h: 0.21 ± 0.06 %ID/g
  tissue uptake at 1 h: 0.17 ± 0.02 %ID/g
[4]; [16]
  tissue uptake at 10 min: 1.29 ± 0.28 %ID/g
  tissue uptake at 0.5 h: 1.19 ± 0.28 %ID/g
  tissue uptake at 1 h: 0.4 ± 0.14 %ID/g

From patent publication EP4640240A1, “PEPTIDE-BASED RADIOPHARMACEUTICALS FOR NON-INVASIVE IMAGING OF THE FUNCTIONAL LIVER RESERVE” (Medizinische Universität Innsbruck, priority 2024, dated 2025)
